{"source": "patent US5281602A", "about": "“Angiotensin II receptor blocking 2,3,6-substituted 5,6,7,8-tetrahydro-pyrido[4,3-D]pyrimidin-4(3H)-ones” (American Cyanamid Company, priority 1993, dated 1994)", "key": {"[1]": {"test_system": "ANGIOTENSIN II (A11) VASOPRESSOR RESPONSE", "assay": "AII Challenge: blockade of angiotensin II vasopressor response in conscious SHR", "format": "in vivo, rat (Conscious Male Okamoto-Aoki SHR)", "from_the_text": "By administering a compound of this invention to a rat, and then challenging with angiotensin II, a blockage of the vasopressor response is realized.\nConscious Male Okamoto-Aoki SHR, 16-20 weeks old, weighing approximately 330 g are purchased from Charles River Labs (Wilmington, Mass.). Conscious rats are restrained in a supine position with elastic tape. The area at the base of the tail is locally anesthetized by subcutaneous infiltration with 2% procaine. The ventral caudal artery and vein are isolated, and a cannula made of polyethylene (PE) 10-20 tubing (fused together by heat) is passed into the lower abdominal aorta and vena cava, respectively. The cannula is secured, heparinized (1,000 I.U./ml), sealed and the wound is closed. The animals are placed in plastic restraining cages in an upright position. The cannula is attached to a Statham P23Db pressure transducer, and pulsatile blood pressure is recorded to 10-15 minutes with a Gould Brush recorder. (Chan et al., (Drug Development Res., 18:75-94, 1989).\nAngiotensin II (human sequence, Sigma Chem. Co., St. Louis, Mo.) of 0.05 and 0.1 ug/kg i.v. is injected into all rats (predosing response). Then a test compound, vehicle or a known angiotensin II antagonist is administered i.v., i.p. or orally to each set of rats. […] The vasopressor response of angiotensin II is measured for the increase in systolic blood pressure in mmHg. The percentage of antagonism or blockade of the vasopressor response of angiotensin II by a compound is calculated using the vasopressor response (increase in systolic blood pressure) of angiotensin II of each rat predosing the compound as 100%. A compound is considered active if at 30 mg/kg i.v. it antagonized at least 50% of the response."}, "Angiotension II Receptor": {"target": "Angiotension II Receptor", "assay": "Receptor Binding Assay: competition with [^125 I] (Sar^1,Ile^8) AngII on microsomal membranes", "conditions": "pH 7.4, 60 min, room temperature", "method": "Binding of [^125 I] (Sar^1,Ile^8) AngII\nThe binding of [^125 I] (Sar^1,Ile^8) AngII to microsomal membranes is initiated by the addition of reconstituted membranes (1:10 vols.) in freshly made 50.0 mMTris.HCl buffer, pH 7.4 containing 0.25% heat inactivated bovine serum albumin (BSA):80 ul membrane protein (10 to 20 ug/assay) to wells already containing 100 ul of incubation buffer (as described above) and 20 ul [^125 I] (Sar^1,Ile^8) AngII (Specific Activity, 2200 Ci/mmole). Non-specific binding is measured in the presence of 1.0 uM unlabeled (Sar^1,Ile^8) AngII, added in 20 ul volume. Specific binding for [^125 I] (Sar^1,Ile^8) AngII is greater than 90%. In competition studies, experimental compounds are diluted in dimethylsulfoxide (DMSO) and added in 20 ul to wells before the introduction of tissue membranes. This concentration of DMSO is found to have no negative effects on the binding of [^125 I] (Sar^1,Ile^8) AngII to the membranes. Assays are performed in triplicate. […] Presoaking the filter sheet in 0.1% polyethylenemine in normal saline (PEI/Saline) greatly reduces the radioactivity retained by the filter blanks. […] The filters are removed from the filter grid and counted in a Parkard® Cobra Gamma Counter for 1 min. […] The binding data are analyzed by the non-linear interactive \"LUNDON-1\" program (LUNDON SOFTWARE Inc., Cleveland, Ohio U.S.A.). […]"}, "[2]": {"conditions": "15 mg/kg IV, AII 0.05 mcg/kg IV, 30 min post dose"}, "[3]": {"conditions": "15 mg/kg IV, AII 0.05 mcg/kg IV, 60 min post dose"}, "[4]": {"conditions": "15 mg/kg IV, AII 0.05 mcg/kg IV, 90 min post dose"}, "[5]": {"conditions": "15 mg/kg IV, AII 0.1 mcg/kg IV, 30 min post dose"}, "[6]": {"conditions": "15 mg/kg IV, AII 0.1 mcg/kg IV, 60 min post dose"}, "[7]": {"conditions": "15 mg/kg IV, AII 0.1 mcg/kg IV, 90 min post dose"}, "[8]": {"conditions": "under second '15 IV' line, AII 0.05 mcg/kg IV, 120 min"}, "[9]": {"conditions": "under second '15 IV' line, AII 0.05 mcg/kg IV, 180 min"}, "[10]": {"conditions": "under second '15 IV' line, AII 0.1 mcg/kg IV, 120 min"}, "[11]": {"conditions": "under second '15 IV' line, AII 0.1 mcg/kg IV, 180 min"}}, "note": "Several values for one entry are separate records, joined by “and”; a condition that tells them apart may be missing. Identical values can stand only once.", "data": [{"smiles": "CCCCc1nc2c(c(=O)n1Cc1ccc(-c3ccccc3-c3nnn[nH]3)cc1)CN(C(=O)OCc1ccccc1)CC2", "note": "[Example 7, Phenylmethyl 2-butyl-3,5,7,8-tetrahydro-4-oxo-3-[[2'-(1H-tetrazol-5-yl)[1,1' -biphenyl] -4-yl]methyl]pyrido[4,3-d]pyrimidin-6(4H)-carboxylate]", "values": [{"measurement": "Average % Inhibition (angiotensin blockage) of AII vasopressor response", "setting": "[1]; [2]", "result": 71, "unit": "%"}, {"measurement": "Average Change (systolic blood pressure response to AII)", "setting": "[1]; [2]", "result": 11, "unit": "mmHg"}, {"measurement": "Average % Inhibition (angiotensin blockage) of AII vasopressor response", "setting": "[1]; [3]", "result": 33, "unit": "%"}, {"measurement": "Average Change (systolic blood pressure response to AII)", "setting": "[1]; [3]", "result": 25, "unit": "mmHg"}, {"measurement": "Change (single reading, systolic blood pressure)", "setting": "[1]; 15 mg/kg IV, AII 0.05 mcg/kg IV, 60 min post dose, 15 mg/kg", "result": "30 mmHg and 20 mmHg"}, {"measurement": "Average % Inhibition (angiotensin blockage) of AII vasopressor response", "setting": "[1]; [4]", "result": 31, "unit": "%"}, {"measurement": "Average Change (systolic blood pressure response to AII)", "setting": "[1]; [4]", "result": 26, "unit": "mmHg"}, {"measurement": "Change (single reading, systolic blood pressure)", "setting": "[1]; 15 mg/kg IV, AII 0.05 mcg/kg IV, 90 min post dose, 15 mg/kg", "result": "30 mmHg and 22 mmHg"}, {"measurement": "Average % Inhibition (angiotensin blockage) of AII vasopressor response", "setting": "[1]; [5]", "result": 59, "unit": "%"}, {"measurement": "Average Change (systolic blood pressure response to AII)", "setting": "[1]; [5]", "result": 17.5, "unit": "mmHg"}, {"measurement": "Change (single reading, systolic blood pressure)", "setting": "[1]; 15 mg/kg IV, AII 0.1 mcg/kg IV, 30 min post dose, 15 mg/kg", "result": "15 mmHg and 20 mmHg"}, {"measurement": "Average % Inhibition (angiotensin blockage) of AII vasopressor response", "setting": "[1]; [6]", "result": 11, "unit": "%"}, {"measurement": "Average Change (systolic blood pressure response to AII)", "setting": "[1]; [6]", "result": 38, "unit": "mmHg"}, {"measurement": "Change (single reading, systolic blood pressure)", "setting": "[1]; 15 mg/kg IV, AII 0.1 mcg/kg IV, 60 min post dose, 15 mg/kg", "result": "40 mmHg and 36 mmHg"}, {"measurement": "Average % Inhibition (angiotensin blockage) of AII vasopressor response", "setting": "[1]; [7]", "result": 0, "unit": "%"}, {"measurement": "Average Change (systolic blood pressure response to AII)", "setting": "[1]; [7]", "result": 42.5, "unit": "mmHg"}, {"measurement": "Change (single reading, systolic blood pressure)", "setting": "[1]; 15 mg/kg IV, AII 0.1 mcg/kg IV, 90 min post dose, 15 mg/kg", "result": "40 mmHg and 45 mmHg"}, {"measurement": "Response After A11 (systolic blood pressure)", "setting": "[1]; 15 mg/kg IV, after AII 0.05 mcg/kg IV, 30 min post dose, 15 mg/kg", "result": "192 mmHg and 175 mmHg"}, {"measurement": "Response After A11 (systolic blood pressure)", "setting": "[1]; 15 mg/kg IV, after AII 0.05 mcg/kg IV, 60 min post dose, 15 mg/kg", "result": "200 mmHg and 190 mmHg"}, {"measurement": "Response After A11 (systolic blood pressure)", "setting": "[1]; 15 mg/kg IV, after AII 0.05 mcg/kg IV, 90 min post dose, 15 mg/kg", "result": "200 mmHg and 182 mmHg"}, {"measurement": "Response After A11 (systolic blood pressure)", "setting": "[1]; 15 mg/kg IV, after AII 0.1 mcg/kg IV, 30 min post dose, 15 mg/kg", "result": "190 mmHg and 180 mmHg"}, {"measurement": "Response After A11 (systolic blood pressure)", "setting": "[1]; 15 mg/kg IV, after AII 0.1 mcg/kg IV, 60 min post dose, 15 mg/kg", "result": "215 mmHg and 206 mmHg"}, {"measurement": "Response After A11 (systolic blood pressure)", "setting": "[1]; 15 mg/kg IV, after AII 0.1 mcg/kg IV, 90 min post dose, 15 mg/kg", "result": "210 mmHg and 200 mmHg"}, {"measurement": "Control Before A11 (systolic blood pressure)", "setting": "[1]; 15 mg/kg IV, before AII 0.05 mcg/kg IV, 30 min post dose, 15 mg/kg", "result": "185 mmHg and 160 mmHg"}, {"measurement": "Control Before A11 (systolic blood pressure)", "setting": "[1]; 15 mg/kg IV, before AII 0.05 mcg/kg IV, 60 min post dose", "result": 170, "unit": "mmHg"}, {"measurement": "Control Before A11 (systolic blood pressure)", "setting": "[1]; 15 mg/kg IV, before AII 0.05 mcg/kg IV, 90 min post dose, 15 mg/kg", "result": "170 mmHg and 160 mmHg"}, {"measurement": "Control Before A11 (systolic blood pressure)", "setting": "[1]; 15 mg/kg IV, before AII 0.1 mcg/kg IV, 30 min post dose, 15 mg/kg", "result": "175 mmHg and 160 mmHg"}, {"measurement": "Control Before A11 (systolic blood pressure)", "setting": "[1]; 15 mg/kg IV, before AII 0.1 mcg/kg IV, 60 min post dose, 15 mg/kg", "result": "175 mmHg and 170 mmHg"}, {"measurement": "Control Before A11 (systolic blood pressure)", "setting": "[1]; 15 mg/kg IV, before AII 0.1 mcg/kg IV, 90 min post dose, 15 mg/kg", "result": "170 mmHg and 155 mmHg"}, {"measurement": "Average % Inhibition (angiotensin blockage) of AII vasopressor response", "setting": "[1]; [8]", "result": 87, "unit": "%"}, {"measurement": "Average Change (systolic blood pressure response to AII)", "setting": "[1]; [8]", "result": 5, "unit": "mmHg"}, {"measurement": "Average % Inhibition (angiotensin blockage) of AII vasopressor response", "setting": "[1]; [9]", "result": 33, "unit": "%"}, {"measurement": "Average Change (systolic blood pressure response to AII)", "setting": "[1]; [9]", "result": 25, "unit": "mmHg"}, {"measurement": "Change (single reading, systolic blood pressure)", "setting": "[1]; [9]", "result": 25, "unit": "mmHg"}, {"measurement": "Average % Inhibition (angiotensin blockage) of AII vasopressor response", "setting": "[1]; [10]", "result": 81, "unit": "%"}, {"measurement": "Average Change (systolic blood pressure response to AII)", "setting": "[1]; [10]", "result": 8, "unit": "mmHg"}, {"measurement": "Change (single reading, systolic blood pressure)", "setting": "[1]; [10]", "result": "6 mmHg and 10 mmHg"}, {"measurement": "Average % Inhibition (angiotensin blockage) of AII vasopressor response", "setting": "[1]; [11]", "result": 32, "unit": "%"}, {"measurement": "Average Change (systolic blood pressure response to AII)", "setting": "[1]; [11]", "result": 29, "unit": "mmHg"}, {"measurement": "Change (single reading, systolic blood pressure)", "setting": "[1]; [11]", "result": "38 mmHg and 20 mmHg"}, {"measurement": "Response After A11 (systolic blood pressure)", "setting": "[1]; under second '15 IV' line, after AII 0.05 mcg/kg IV, 120 min", "result": "195 mmHg and 185 mmHg"}, {"measurement": "Response After A11 (systolic blood pressure)", "setting": "[1]; under second '15 IV' line, after AII 0.05 mcg/kg IV, 180 min", "result": "200 mmHg and 160 mmHg"}, {"measurement": "Response After A11 (systolic blood pressure)", "setting": "[1]; under second '15 IV' line, after AII 0.1 mcg/kg IV, 120 min", "result": "176 mmHg and 180 mmHg"}, {"measurement": "Response After A11 (systolic blood pressure)", "setting": "[1]; under second '15 IV' line, after AII 0.1 mcg/kg IV, 180 min", "result": "215 mmHg and 160 mmHg"}, {"measurement": "Control Before A11 (systolic blood pressure)", "setting": "[1]; under second '15 IV' line, before AII 0.05 mcg/kg IV, 120 min", "result": 185, "unit": "mmHg"}, {"measurement": "Control Before A11 (systolic blood pressure)", "setting": "[1]; under second '15 IV' line, before AII 0.05 mcg/kg IV, 180 min", "result": "175 mmHg and 135 mmHg"}, {"measurement": "Control Before A11 (systolic blood pressure)", "setting": "[1]; under second '15 IV' line, before AII 0.1 mcg/kg IV, 120 min", "result": 170, "unit": "mmHg"}, {"measurement": "Control Before A11 (systolic blood pressure)", "setting": "[1]; under second '15 IV' line, before AII 0.1 mcg/kg IV, 180 min", "result": "177 mmHg and 140 mmHg"}, {"measurement": "IC50", "setting": "Angiotension II Receptor", "result": 660, "unit": "nM"}]}]}
